# Data reported in patent publication US20090087495A1, “Food for Improving Motor Function” (Nippon Meat Packers, Inc., priority 2005, published 2009).
# Tested on: male ddY mice
# Assay: Stamina improvement: swimming until exhaustion in a running water pool
# Format: in vivo
# Conditions: material 10 mg/ml, oral 10 ml/kg once a day for seven days; 10 animals per group; relative value, Comparative Example 21 (control) = 100
# Description: The test solution was given to mice to check for the influence on the improvement of stamina. Five-week-old male ddY mice (purchased from Japan SLC Co. Ltd.) were raised, letting them be free to take solid feed (CE-2, Japan Clare Co. Ltd., Tokyo) and water (10 mice per group). […] After one week of preparatory raising and swim training, they were allowed to freely take ordinary solid feed and water. […] On the day just before start of giving the test solution and on the 7th day after start of giving the test solution, the experimental animals were let to swim until exhaustion in the pool (velocity at center: 23.6 cm/sec.) to measure the swimming duration and to obtain the elongation of the swimming duration in seven days.
row,Compound,"Elongation of swimming duration (%), without chicken extract powder [%]"
1,"CN(CC(=O)O)C(=N)N [Comparative Example 1, creatine]",110
2,"N=C(N)NCCC[C@H](N)C(=O)O [Comparative Example 2, arginine]",110
3,"Cn1c(=O)c2c(ncn2C)n(C)c1=O [Comparative Example 6, caffeine]",110
4,"O=C(O)CC(O)(CC(=O)O)C(=O)O [Comparative Example 7, citric acid]",110
5,"C[N+](C)(C)CC(O)CC(=O)[O-] (stereo not drawn) [Comparative Example 8, carnitine]",110
6,"O=C(O)CCCCC1CCSS1 (stereo not drawn) [Comparative Example 9, thioctic acid]",110
7,"C/C=C1/[C@H](O[C@@H]2O[C@H](CO)[C@@H](O)[C@H](O)[C@H]2O)OC=C(C(=O)OC)[C@H]1CC(=O)OCCc1ccc(O)c(O)c1 [Comparative Example 13, oleuropein]",120
8,"COC1=C(OC)C(=O)C(C/C=C(\C)CC/C=C(\C)CC/C=C(\C)CC/C=C(\C)CC/C=C(\C)CC/C=C(\C)CC/C=C(\C)CC/C=C(\C)CC/C=C(\C)CCC=C(C)C)=C(C)C1=O [Comparative Example 14, ubiquinone (CoQ10)]",110
9,antocyanine [Comparative Example 12],120
10,heme iron [Comparative Example 10],110
11,proanthocyanidin [Comparative Example 11],110
12,tocotrienol [Comparative Example 15],120
